This is an account of results in patent publication US20180000768A1, “INTESTINAL FXR AGONISM ENHANCES GLP-1 SIGNALING TO RESTORE PANCREATIC BETA CELL FUNCTIONS” (Salk Institute for Biological Studies, priority 2015, published 2018).

In one series the test system is enteroendocrinal L cells. Put plainly: Gene expression analysis (QPCR) in enteroendocrinal L cells. The class given is cell-based, human.
The subject of another series is ob/ob mice. The series is described as follows: gene expression (RNA-Seq, QPCR) in tissues of treated ob/ob mice. The format is in vivo, mouse. The conditions noted are these: INT-777 60 mg/kg P.O. for 5 weeks. The method, then: Total RNA was isolated from cell pellets treated with RNAlater using the RNA mini kit (Qiagen) and treated with DNaseI (Qiagen) for 30 minutes at room temperature. Sequencing libraries were prepared from 100-500 ng total RNA using the TruSeq RNA Sample Preparation Kit v2 (Illumina) according to the manufacturer's protocol. Briefly, mRNA was purified, fragmented, and used for first-, then second-strand cDNA synthesis followed by adenylation of 3′ ends. Samples were ligated to unique adapters and subjected to PCR amplification. Mulitplexed libraries were then validated using the 2100 BioAnalyzer (Agilent), normalized, and pooled for sequencing. RNA-Seq libraries prepared from two biological replicates for each experimental condition were sequenced on the Illumina HiSeq 2500 using bar-coded multiplexing and a 100 bp read length.
Image analysis and base calling were performed with Illumina CASAVA-1.8.2. This yielded a median of 29.9M usable reads per sample. Short read sequences were mapped to a UCSC mm9 reference sequence using the RNA-seq aligner STAR. Known splice junctions from mm9 were supplied to the aligner and de novo junction discovery was also permitted. Differential gene expression analysis, statistical testing and annotation were performed using Cuffdiff 2. Transcript expression was calculated as gene-level relative abundance in fragments per kilobase of exon model per million mapped fragments and employed correction for transcript abundance bias. RNA-Seq results for genes of interest were also explored visually using the UCSC Genome Browser.

Series [1] relates to human enteroendocrinal L cells (NCI-H716). Put plainly: In vitro GLP-1 secretion assay. The format is cell-based. The conditions noted are these: L cells pretreated with compound. The method, then:
In vitro GLP-1 secretion assay was performed in human enteroendocrinal L cells (NCI-H716). For each secretion assay, cells were seeded at 1×10^5 cells/ml (1 ml/well) in a matrigel-coated 24-well plate. Prior to GLP-1 secretion assay, cells were pre-treated with DMSO, 1 μM Fex, or 1 μM Fex-D overnight. Cells were deprived in Krebs buffer (with 0.1% BSA) with dipeptidyl peptidase (DPP)-4 inhibitor ([…] sitagliptin). GLP-1 was measured with a commercial kit (EZGLP1T-36K, Millipore). For in vivo GLP-1 secretion, each animal was gavaged with 25 mg per kg of body weight sitagliptin 60-minutes before glucose load. Blood was collected from the tail vein at the indicated intervals, and transferred to serum collection tubes containing sitagliptin.

A short description of series [2]: in vitro permeability in Caco2 cells. The conditions noted are these: human; for Papp A→B at 2 h, 10 μM: Caco2 cells, assay conc. 10 μM.
A short description of another series: in vitro. The conditions noted are these: human.
In a further series the test system is isolated islets. The series is described as follows: gene expression after direct ex vivo treatment of isolated islets. The class given is cell-based, mouse. To be noted: 24 hours ex vivo, XL335 1 μM, Fex 1 μM. The method, then:
Leptin-deficient ob/ob mice were treated daily with vehicle, Fex, or the analogue Fex-D (50 mg/kg) via P.O. for 14 days (A) Chemical structures of fexaramine and Fex-D (B) Schematic of the experimental design (C) Serum glucose levels (D) Glucose tolerance test (E) Insulin secretion in vivo (F) GLP-1 secretion in vivo (G) Heatmap showing hierarchal clustering of gene expression changes in islet induced by Fex (100 mg/kg, 4 wks) and FexD (50 mg/kg, 2 weeks) treatment in ob/ob mice (in vivo); by treatment of islets with XL335 (1 μM), Fex (1 μM), mFgf15 and hFgf19 (24 hours ex vivo); and mFgf15 (0.15 mg/kg, 2 weeks) and INT777 (Tgr5, 60 mg/kg, 4 weeks) treatment of ob/ob mice (in vivo). Gene expression was measured by RNA-Seq and changes are expressed as Z-score. (H) Ven diagram of changes in gene expression in pancreatic islets induced by FEX (100 mg/kg for 5 weeks) and FEX-D (50 mg/kg for 14 days). […] Data represent the mean±STD. Statistical analysis was performed with the Student's t test. *p<0.05, **p<0.01.
Next, primary islets were isolated from mice treated by Fex-D to compare gene expression changes.

For the next series, the system named is NCI-H716 cells. Put plainly: Extracellular oxygen consumption rate assay (Seahorse XF96). The class given is cell-based, human. The method, then: Briefly, NCI-H716 cells were seeded in XF 96-well cell culture microplates (Seahorse Bioscience) at 6.0×10^4 cells per well in 150 μl of growth medium and then incubated at 37° C./5% CO2 for 24 hr. A Seahorse Bioscience instrument model XF96 was used to measure the rate of change of dissolved oxygen in the media surrounding the cells. All procedures followed manufacturer's instructions. […] Conversely, treatment with the FXR antagonist guggulsterone reduced basal respiratory rates and the FCCP-induced maximum respiration rate (FIGS. 9A and 9B). To examine the effects of FXR activity on the secretion of GLP-1, the metabolic changes induced in human L cells was measured after treatment with the FXR agonist, fexaramine and an FXR antagonist, guggulsterone. Treatment of L cells with fexaramine (1 μM for 24 hours) lead to an increase in the oxygen consumption rate (OCR), consistent with increased mitochondrial activity and consequently, an increased energetic state (FIG. 9A). The reverse effect was seen after treatment with the FXR antagonist, guggulsterone, with lower OCR after drug treatment.

The subject of series [3] is pancreatic islets from ob/ob mice. Put plainly: Insulin secretion assay on isolated pancreatic islets (ex vivo). The class given is cell-based, mouse. The conditions noted are these: islets, 100 nM Exendin-4. The protocol: Mouse pancreatic islets were isolated from ob/ob mice according to a method used for rats traditionally. Briefly, 0.5 mg/ml collagenase P (Roche) diluted in HBSS buffer was injected through the common bile duct and the perfused pancreas was dissected and incubated in water bath with 37° C. for 21 minutes. Digested exocrine cells and intact islets were separated using Histopaque-1077 (SIGMA) with centrifugation by 900 g for 15 minutes and intact islets were picked up manually.
Insulin release from intact islets was monitored using batch incubation methods.
Isolated pancreatic islets were cultured over-night with […] supplemented with 10% (v/v) fetal bovine serum and 1% (v/v) Antibiotics-antimycotic solution, were pre-cultured at 37° C. for 30 minutes in Krebs Ringer bicarbonate buffer (KRBH) containing 129.4 mM NaCl, 3.7 mM KCl, 2.7 mM CaCl2, 1.3 mM KH2PO4, 1.3 mM MgSO4, 24.8 mM NaHCO3 (equilibrated with 5% CO2, 95% O2, pH7.4), 10 mM HEPES and 0.2% (v/v) BSA (fraction V) with 3 mM glucose. N ext, the pancreatic islets were incubated for 30 minutes KRBH buffer (500 μl/10 islets) with 3 mM or 20 mM glucose with or without 100 nM Exendin-4 to determine insulin secretion levels. At the end of the incubation period, islets were pelleted by centrifugation, and aliquots of the buffer were sampled. The amounts of insulin were determined by Rat/mouse Insulin ELISA KIT (Millipore) for mice islets.

Where [4] appears, read: Caco-2, A-B Permeability Ranking.
Setting [5] is: Caco-2, Mean Papp, A-B, 2 hour incubation.

On to `CC[C@H]1[C@@H](O)[C@@H]2[C@H](C[C@H](O)[C@]3(C)[C@@H]([C@H](C)C[C@H](C)C(=O)O)CC[C@@H]23)[C@@]2(C)CC[C@@H](O)C[C@@H]12` [INT-777], for which, in the series on enteroendocrinal L cells, the “SHP expression (FXR target gene)” value is “not” and the proglucagon expression result is “selectively induced”. Besides, the “expression of the GLP-1 receptor in islets” value in the series on ob/ob mice is given as “significantly increased”. The “GLP-1 secretion in response to a glucose challenge” value in series [1] is “increased”.
With `[2H]C(c1ccc(-c2ccc(N(C)C)cc2)cc1)N(C(=O)[C@@H]1C[C@@H]2CC[C@H]1C2)c1cc(F)cc(/C=C/C(=O)OC)c1` (stereo partly shown) [NSSK 00024], the basolateral-to-apical permeability (Papp B→A) (commonly the apparent permeability from the basolateral to the apical side of a cell layer) at 2 h, 10 μM in series [2] (Caco-2) was 0.23 ×10⁻⁶ cm/s. The same compound gave a recovery at 2 h, 10 μM in series [2] (Caco-2) of 192%. Further, the values for the apparent permeability from apical to basolateral (Papp A→B) at 2 h, 10 μM in series [2] (setting [4]) and in series [2] (setting [5]) were < 1 ×10⁻⁶ cm/s and 0.0294 ×10⁻⁶ cm/s, respectively.
In the case of `[2H]C(c1ccc(-c2ccc3c(cnn3C)c2)cc1F)N(C(=O)C1CCCCC1)c1cccc(/C=C/C(=O)OC)c1` (stereo not shown) [NSSK 00089], in series [2] (Caco-2), the Papp B→A at 2 h, 10 μM was 0.064 ×10⁻⁶ cm/s and the recovery at 2 h, 10 μM turned out to be 67.1%. In addition, the apical-to-basolateral permeability (Papp A→B) (commonly the apparent permeability from the apical to the basolateral side of a cell layer) at 2 h, 10 μM in series [2] (setting [4]) is < 1 ×10⁻⁶ cm/s. The same compound showed a Papp A→B at 2 h, 10 μM in series [2] (setting [5]) of 0.0962 ×10⁻⁶ cm/s.
The like results for `[2H]C(c1ccc(-c2ccc3c(cnn3C)c2)cc1)N(C(=O)C1CCCCC1)c1cc(F)cc(/C=C/C(=O)OC)c1` (stereo not shown) [NSSK 00096] were, in that order, 0.0399 ×10⁻⁶ cm/s, 69.9%, < 1 ×10⁻⁶ cm/s and 0.0104 ×10⁻⁶ cm/s.
For `CNC(=C[N+](=O)[O-])NCCSCc1ccc(CN(C)C)o1` [Ranitidine], in series [2] (Caco-2), the Papp B→A at 2 h, 10 μM turned out to be 0.922 ×10⁻⁶ cm/s; the efflux ratio (as a rule, the permeability from basolateral to apical divided by that in the opposite direction, in the common usage) at 2 h, 10 μM turned out to be 3.36; the recovery at 2 h, 10 μM was found to be 92.7%. Besides, the Papp A→B at 2 h, 10 μM in series [2] (setting [4]) is < 1 ×10⁻⁶ cm/s. The same compound gave a Papp A→B at 2 h, 10 μM in series [2] (setting [5]) of 0.274 ×10⁻⁶ cm/s.
For the compound `CC(=O)CC(c1ccccc1)c1c(O)c2ccccc2oc1=O` (stereo not shown) [Warfarin], in “in vitro” (Caco-2), the Papp B→A at 2 h, 10 μM came out at 29.8 ×10⁻⁶ cm/s; the efflux ratio at 2 h, 10 μM came to 0.695; the recovery at 2 h, 10 μM came out at 101%. In addition, the Papp A→B at 2 h, 10 μM in the series “in vitro” (setting [4]) was > 1 ×10⁻⁶ cm/s. The compound further showed a Papp A→B at 2 h, 10 μM in “in vitro” (Caco-2, Mean Papp, A-B) of 42.8 ×10⁻⁶ cm/s.
`CC(C)OC(=O)C1=CN(C(=O)c2ccc(F)c(F)c2)CC(C)(C)c2c1[nH]c1ccccc21` [XL335]: the “transcriptional changes seen in islets in vivo with Fex and Fex-D” value in the series with isolated islets is reported as “not observed”.
Take `C/C=C1\C(=O)C[C@H]2[C@@H]3CCC4=CC(=O)CC[C@]4(C)[C@H]3CC[C@]12C` [guggulsterone]: the “basal respiratory rates and the FCCP-induced maximum respiration rate” value in the series on NCI-H716 cells (L cells, guggulsterone 10 μM for 24 hr) is on record as “reduced”. Also, in the series with NCI-H716 cells (human L cells, 24 hours, fexaramine 1 μM, guggulsterone 10 μM), the “oxygen consumption rate (OCR)” value is “lower”.
For the compound Exendin-4: GLP-1 agonist, the “ex vivo insulin secretion in presence of GLP-1 agonist” value in series [3] is on record as “further potentiated”.
As for “hFgf19: hFgf19 protein used for direct ex vivo treatment of isolated islets”, in the series on isolated islets, the “transcriptional changes seen in islets in vivo with Fex and Fex-D” value is “not observed”.
